# Measurements reported in US9862717B2 (Merck Patent GmbH, priority 2014, dated 2018).
# Target: T1, CDK8/CycC (Homo sapiens, UniProt P49336)
# T1 construct: purchased Invitrogen PV4402
# Assay: FRET based Lanthascreen binding competition assay for CDK8 inhibitory activity
# Conditions: CDK8 co-expressed with CycC; class symbols; read-out: IC50
# In short: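 Competition binding of a dye-labeled ATP-competitive Alexa647 probe to CDK8 co-expressed with CycC, Eu-labeled via biotinylated anti-His antibody/streptavidin.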
# T1 sequence (P49336 whole entry): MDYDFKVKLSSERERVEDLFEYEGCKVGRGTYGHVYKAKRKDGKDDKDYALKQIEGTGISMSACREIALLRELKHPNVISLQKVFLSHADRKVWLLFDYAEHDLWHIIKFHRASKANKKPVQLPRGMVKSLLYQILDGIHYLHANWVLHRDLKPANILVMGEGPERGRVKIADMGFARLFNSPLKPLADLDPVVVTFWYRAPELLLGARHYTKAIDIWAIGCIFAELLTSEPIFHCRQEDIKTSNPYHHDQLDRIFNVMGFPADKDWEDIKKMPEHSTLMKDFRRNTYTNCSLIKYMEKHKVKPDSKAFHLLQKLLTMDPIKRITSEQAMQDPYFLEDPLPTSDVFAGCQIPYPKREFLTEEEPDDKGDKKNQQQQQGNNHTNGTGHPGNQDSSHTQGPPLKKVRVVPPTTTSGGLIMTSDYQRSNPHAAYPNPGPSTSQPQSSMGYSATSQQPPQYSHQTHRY
# T1 sequence (P24863 whole entry partner): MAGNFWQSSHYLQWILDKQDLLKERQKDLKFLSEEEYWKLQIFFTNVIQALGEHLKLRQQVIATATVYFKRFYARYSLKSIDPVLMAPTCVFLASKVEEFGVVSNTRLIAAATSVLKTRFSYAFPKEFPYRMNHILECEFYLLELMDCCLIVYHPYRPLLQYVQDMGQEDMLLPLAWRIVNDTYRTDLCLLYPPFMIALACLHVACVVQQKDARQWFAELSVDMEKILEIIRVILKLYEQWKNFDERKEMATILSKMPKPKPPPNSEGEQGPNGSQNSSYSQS
row,IC50 [µM],Structure (SMILES)
1,1 to 10,"Cc1n[nH]c2ncc(C(=O)N3CC[C@@H]3c3ccc(Cl)cc3)cc12 [compound 240, [(R)-2-(4-Chloro-phenyl)-azetidin-1-yl]-(3-methyl-1H-pyrazolo[3,4-b]pyridin-5-yl)-methanone]"
2,0.01 to 0.1,"Cc1n[nH]c2ncc(C(=O)N3CC[C@H]3c3ccc(Cl)cc3)cc12 [compound 241, [(S)-2-(4-Chloro-phenyl)-azetidin-1-yl]-(3-methyl-1H-pyrazolo[3,4-b]pyridin-5-yl)-methanone]"
3,< 0.01,"Cc1n[nH]c2ccc(C(=O)N3CCC[C@H]3c3ccc(F)cc3)nc12 [compound 242, (S)-(2-(4-fluorophenyl)pyrrolidin-1-yl)(3-methyl-1H-pyrazolo[4,3-b]pyridin-5-yl)methanone]"
4,0.01 to 0.1,"COc1n[nH]c2ncc(C(=O)N3CCC[C@H]3c3ccc(Cl)cc3)cc12 [compound 243, (S)-(2-(4-chlorophenyl)pyrrolidin-1-yl)(3-methoxy-1H-pyrazolo[3,4-b]pyridin-5-yl)methanone]"
5,0.01 to 0.1,"Cc1n[nH]c2ncc(C(=O)N3CCC[C@H]3c3ccc4[nH]ncc4c3)cc12 [compound 245, [(S)-2-(1H-Indazol-5-yl)-pyrrolidin-1-yl]-(3-methyl-1H-pyrazolo[3,4-b]pyridin-5-yl)-methanone]"
6,1 to 10,"Cc1n[nH]c2ncc(C(=O)N3CCC[C@@H]3c3ccc4[nH]ncc4c3)cc12 [compound 246, [(R)-2-(1H-Indazol-5-yl)-pyrrolidin-1-yl]-(3-methyl-1H-pyrazolo[3,4-b]pyridin-5-yl)-methanone]"
7,0.01 to 0.1,"Cc1n[nH]c2ncc(C(=O)N3CCC[C@H]3c3ccc(C#N)cc3)cc12 [compound 247, 4-[(S)-1-(3-Methyl-1H-pyrazolo[3,4-b]pyridine-5-carbonyl)-pyrrolidin-2-yl]-benzonitrile]"
8,1 to 10,"Cc1n[nH]c2ncc(C(=O)N3CCC[C@@H]3c3ccc(C#N)cc3)cc12 [compound 248, 4-[(R)-1-(3-Methyl-1H-pyrazolo[3,4-b]pyridine-5-carbonyl)-pyrrolidin-2-yl]-benzonitrile]"
9,0.1 to 1,"Cc1n[nH]c2ncc(C(=O)N3CCC[C@H]3c3ccc(Cl)c(C#N)c3)cc12 [compound 252, 2-Chloro-5-[(S)-1-(3-methyl-1H-pyrazolo[3,4-b]pyridine-5-carbonyl)-pyrrolidin-2-yl]-benzonitrile]"
10,1 to 10,"Cc1n[nH]c2ncc(C(=O)N3CCC[C@@H]3c3ccc(Cl)c(C#N)c3)cc12 [compound 253, 2-Chloro-5-[(R)-1-(3-methyl-1H-pyrazolo[3,4-b]pyridine-5-carbonyl)-pyrrolidin-2-yl]-benzonitrile]"
11,< 0.01,"Cc1n[nH]c2ccc(C(=O)N3CCC[C@H]3c3ccc(C(F)(F)F)cc3)nc12 [compound 257, (S)-(3-Methyl-1H-pyrazolo[4,3-b]pyridin-5-yl)(2-(4-(trifluoromethyl)phenyl)pyrrolidin-1-yl)methanone]"
12,< 0.01,"Cc1n[nH]c2ccc(C(=O)N3CCCC3c3ccc(Cl)c(F)c3)nc12 (stereo not shown) [compound 260, (2-(4-chloro-3-fluorophenyl)pyrrolidin-1-yl)(3-methyl-1H-pyrazolo[4,3-b]pyridin-5-yl)methanone]"
13,0.1 to 1,"Cc1n[nH]c2ncc(C(=O)N3CCC[C@H]3c3ccc(CN)cc3)cc12 [compound 262, [(S)-2-(4-Aminomethyl-phenyl)-pyrrolidin-1-yl]-(3-methyl-1H-pyrazolo[3,4-b]pyridin-5-yl)-methanone]"

# Continued, compound first:
row,Structure (SMILES),IC50 [µM]
1,"Cc1n[nH]c2ncc(C(=O)N3CCC(O)(c4ccc(Cl)cc4)C3)cc12 (stereo not shown) [compound 237, [3-(4-Chloro-phenyl)-3-hydroxy-pyrrolidin-1-yl]-(3-methyl-1H-pyrazolo[3,4-b]pyridin-5-yl)-methanone]",0.1 to 1
2,"Nc1n[nH]c2ccc(C(=O)N3CCC(O)(c4ccc(Cl)cc4)C3)cc12 (stereo not shown) [compound 238, (3-Amino-1H-indazol-5-yl)-[3-(4-chloro-phenyl)-3-hydroxy-pyrrolidin-1-yl]-methanone]",0.1 to 1
3,"O=C(c1cnc2[nH]ncc2c1)N1CCC[C@H]1c1ccc(Cl)cc1 [compound 239, [(S)-2-(4-Chloro-phenyl)-pyrrolidin-1-yl]-(1H-pyrazolo[3,4-b]pyridin-5-yl)-methanone]",0.1 to 1
4,"Cc1n[nH]c2ncc(C(=O)N3CCC(CCO)(c4ccc(Cl)cc4)C3)cc12 (stereo not shown) [compound 249, [3-(4-Chloro-phenyl)-3-(2-hydroxy-ethyl)-pyrrolidin-1-yl]-(3-methyl-1H-pyrazolo[3,4-b]pyridin-5-yl)-methanone]",0.01 to 0.1
5,"Nc1n[nH]c2ccc(C(=O)N3CCC(CCO)(c4ccc(Cl)cc4)C3)cc12 (stereo not shown) [compound 250, (3-Amino-1H-indazol-5-yl)-[3-(4-chloro-phenyl)-3-(2-hydroxy-ethyl)-pyrrolidin-1-yl]-methanone]",0.1 to 1
6,"Cc1n[nH]c2ncc(C(=O)N3C[C@H](N)C[C@H]3c3ccc(Cl)cc3)cc12 [compound 251, [(2S,4R)-4-Amino-2-(4-chloro-phenyl)-pyrrolidin-1-yl]-(3-methyl-1H-pyrazolo[3,4-b]pyridin-5-yl)-methanone]",0.1 to 1
7,"CN[C@@H]1C[C@@H](c2ccc(Cl)cc2)N(C(=O)c2cnc3[nH]nc(C)c3c2)C1 [compound 254, [(2S,4R)-2-(4-Chloro-phenyl)-4-methylamino-pyrrolidin-1-yl]-(3-methyl-1H-pyrazolo[3,4-b]pyridin-5-yl)-methanone]",0.1 to 1
8,"Cc1n[nH]c2ncc(C(=O)N3C[C@@H](O)[C@H](c4ccc(Cl)cc4)C3)cc12 [compound 255, [(3R,4S)-3-(4-Chloro-phenyl)-4-hydroxy-pyrrolidin-1-yl]-(3-methyl-1H-pyrazolo[3,4-b]pyridin-5-yl)-methanone]",1 to 10
9,"Cc1n[nH]c2ncc(C(=O)N3C[C@H](c4ccc(Cl)cc4)[C@@H](O)C3)cc12 [compound 256, [(3S,4R)-3-(4-Chloro-phenyl)-4-hydroxy-pyrrolidin-1-yl]-(3-methyl-1H-pyrazolo[3,4-b]pyridin-5-yl)-methanone]",< 0.01
10,"Cc1n[nH]c2ncc(C(=O)N3CCC[C@@H]3c3cccc(C#N)c3)cc12 [compound 258, 3-[(R)-1-(3-Methyl-1H-pyrazolo[3,4-b]pyridine-5-carbonyl)-pyrrolidin-2-yl]-benzonitrile]",1 to 10
11,"Cc1n[nH]c2ncc(C(=O)N3CCC[C@H]3c3cccc(C#N)c3)cc12 [compound 259, 3-[(S)-1-(3-Methyl-1H-pyrazolo[3,4-b]pyridine-5-carbonyl)-pyrrolidin-2-yl]-benzonitrile]",0.1 to 1
12,"Cc1n[nH]c2ncc(C(=O)N3C[C@H](O)C[C@H]3c3ccc(Cl)cc3)cc12 [compound 261, [(2S,4R)-2-(4-Chloro-phenyl)-4-hydroxy-pyrrolidin-1-yl]-(3-methyl-1H-pyrazolo[3,4-b]pyridin-5-yl)-methanone]",0.1 to 1

# Same assay, conditions: CDK8 co-expressed with CycC; numeric value; read-out: IC50
row,IC50 [µM],Structure (SMILES)
1,0.34,Nc1n[nH]c2cnc(C(=O)N3CCC[C@H]3c3ccc(Cl)cc3)cc12 [compound 265]

# Same assay, conditions: IC50 [μM], CDK8 co-expressed with CycC; class symbols
row,IC50 [µM],Structure (SMILES)
1,< 0.01,"CNc1n[nH]c2ccc(C(=O)N3CCC[C@H]3c3ccc(Cl)cc3)cc12 [compound 236, [(S)-2-(4-Chloro-phenyl)-pyrrolidin-1-yl]-(3-methylamino-1H-indazol-5-yl)-methanone]"
2,0.01 to 0.1,"Cc1n[nH]c2ccc(C(=O)N3CCN(C)CC3c3ccc(Cl)cc3)cc12 (stereo not shown) [compound 244, (2-(4-chlorophenyl)-4-methylpiperazin-1-yl)(3-methyl-1H-indazol-5-yl)methanone]"
